Legend:
[1] = test system: HCC827 NSCLC cell with EGFR exon 19 deletion mutation; assay: HCC827 cell proliferation assay (counter screen); assay type: cell-based, human; conditions: Homo sapiens, HCC827 cells, 72 hours treatment, CellTiter96, read-out: anti-proliferation activity HCC827 EGFR Exon19 del, IC50 ranking
Procedure: (§1) Inhibitions of cell growths by compounds were measured using CellTiter™-96 assay. The cytotoxicities of compounds of the invention were evaluated in cell line panels with different signaling pathway dependencies, including MV4-11 human acute myeloid leukemia cell with FLT3-ITD mutation, Molm-14 human acute myeloid leukemia cell with FLT3-ITD mutation, THP-1 human acute monocytic leukemia cell with NRAS G12D mutation, A375 melanoma cell with BRAF V600E mutation, and HCC827 NSCLC cell with EGFR exon 19 deletion mutation.
(§2) HCC827 cells are non-small cell lung carcinoma (NSCLC) cells encoding EGFR exon 19 deletion mutation, which renders the cell growth dependent on EGFR signaling instead of class III RTKs signaling. HCC827 cells (catalog #CRL-2868) were obtained from the ATCC. Briefly, cells were cultured in RPMI1640 medium supplemented with 10% FBS and incubated at 37° C. in 5% CO2 atmosphere. Cells were allowed to expand until reaching saturation, at which point they were sub-cultured or harvested for assay use.
(§3) MV4-11, Molm-14, THP-1, A375, and HCC827 cells were seeded into 96-well plates at 6500, 25000, 5000, 2000 and 8000 cells/well, respectively, and incubated at 37° C., 5% CO2 overnight. Then, these seeded cells were treated with increasing concentrations of the test compounds and incubated for another 72 hours. At the end of the incubation, CellTiter96® AQueous One Solution Reagent (Promega, […]) was added and incubated for the additional 2˜4 hours. Cell viability was determined by measuring absorbance at 490 nm using EMax® microplate reader (Molecular Devices, San Jose, CA, USA).

[2] = test system: THP-1 human acute monocytic leukemia cell with NRAS G12D mutation; assay: THP-1 cell proliferation assay (counter screen); assay type: cell-based; conditions: Homo sapiens, THP-1 cells, 72 hours treatment, CellTiter96, read-out: anti-proliferation activity THP-1 NRAS N12D, IC50 ranking
Procedure: as §1
THP-1 cells are human acute monocytic leukemia cells with NRAS G12D mutation, which renders the cell growth independent of class III RTKs signaling. THP-1 cells (catalog #TIB-202) were obtained from the ATCC. Briefly, cells were grown in RPMI 1640 medium supplemented with 10% heat inactivated fetal bovine serum and 0.05 mM 2-mercaptoethanol and incubated at 37° C. in 5% CO2 atmosphere. Cells were allowed to expand until reaching saturation, at which point they were sub-cultured or harvested for assay use.
as §3

MET kinase = molecular target: T1, MET kinase (Homo sapiens, UniProt P08581); assay: MET kinase assay (AlphaScreen, counter screen); assay type: biochemical; conditions: read-out: Ranking of IC50 values, MET
T1 construct: purchased SignalChem
T1 sequence (P08581 25-1390): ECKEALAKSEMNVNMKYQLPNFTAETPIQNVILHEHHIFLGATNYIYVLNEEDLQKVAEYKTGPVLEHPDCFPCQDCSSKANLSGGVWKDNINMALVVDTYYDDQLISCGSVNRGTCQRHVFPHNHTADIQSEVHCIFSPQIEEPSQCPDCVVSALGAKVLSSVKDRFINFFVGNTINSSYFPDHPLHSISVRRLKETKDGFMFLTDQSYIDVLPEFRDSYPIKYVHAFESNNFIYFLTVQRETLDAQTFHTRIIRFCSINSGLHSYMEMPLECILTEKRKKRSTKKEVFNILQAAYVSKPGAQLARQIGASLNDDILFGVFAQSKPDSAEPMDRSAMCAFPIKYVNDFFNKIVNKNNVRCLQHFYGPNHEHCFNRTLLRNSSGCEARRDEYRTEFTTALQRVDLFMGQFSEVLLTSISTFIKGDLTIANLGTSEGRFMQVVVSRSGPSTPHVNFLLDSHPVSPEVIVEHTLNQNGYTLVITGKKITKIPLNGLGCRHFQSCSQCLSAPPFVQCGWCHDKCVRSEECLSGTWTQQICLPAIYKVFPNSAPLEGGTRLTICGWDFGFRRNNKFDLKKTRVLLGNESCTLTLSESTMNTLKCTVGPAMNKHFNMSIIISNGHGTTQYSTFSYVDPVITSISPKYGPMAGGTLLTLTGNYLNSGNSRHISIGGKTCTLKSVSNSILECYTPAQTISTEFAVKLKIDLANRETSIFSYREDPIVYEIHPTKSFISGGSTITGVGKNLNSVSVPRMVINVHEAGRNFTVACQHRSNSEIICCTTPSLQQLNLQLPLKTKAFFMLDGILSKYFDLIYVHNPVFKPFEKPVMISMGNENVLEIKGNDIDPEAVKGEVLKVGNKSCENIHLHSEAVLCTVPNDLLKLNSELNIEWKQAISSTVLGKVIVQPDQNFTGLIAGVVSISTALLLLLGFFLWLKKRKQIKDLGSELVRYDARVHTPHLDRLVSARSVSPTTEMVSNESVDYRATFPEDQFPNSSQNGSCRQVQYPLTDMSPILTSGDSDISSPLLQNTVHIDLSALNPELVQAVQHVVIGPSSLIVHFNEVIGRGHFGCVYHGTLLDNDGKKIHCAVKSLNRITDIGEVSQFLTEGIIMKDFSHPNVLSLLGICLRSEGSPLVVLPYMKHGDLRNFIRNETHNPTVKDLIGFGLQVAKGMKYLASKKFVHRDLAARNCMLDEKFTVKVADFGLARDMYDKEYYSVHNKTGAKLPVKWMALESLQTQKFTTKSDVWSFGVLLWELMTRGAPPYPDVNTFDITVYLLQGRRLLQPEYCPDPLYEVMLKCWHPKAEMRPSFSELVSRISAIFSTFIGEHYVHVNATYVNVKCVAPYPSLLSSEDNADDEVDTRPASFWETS
Procedure: Because MET kinase belonged to Class VIII RTK family have one transmembrane a chain linked with one extracellular β chain which is different form Class III RTK family with 5 Immunoglobin-like extracellular domains. Standard assay conditions were 1 ng of recombinant MET kinase (SignalChem) with 3 ng Biotin-conjugated Poly-(Glu 4: Tyr 1) (Cisbio) in the assay buffer ([…], 10 mM MOPs, pH 7.0, 0.21 mM EDTA, 0.5% glycerol, 1 mg/mL BSA, 0.01% 2-mercaptoethanol, 0.001% Brij35, 10 mM MgCl2) in a final volume of 25 μL. Reactions were incubated at 30° C. for 45 min and stopped by adding 5 μL of 50 mM EDTA. Analysis of resulting product using an AlphaScreen kit and counted with Enspire Alpha (PerkinElmer). […] The IC50 values of inhibitors were determined after carrying out assays with each compound at serially diluted concentrations in duplication. The results were analyzed using linear regression software (GraphPad Prism 5; GraphPad Software Inc.)

[3] = test system: A375 melanoma cell with BRAF V600E mutation; assay: A375 cell proliferation assay (counter screen); assay type: cell-based, human; conditions: Homo sapiens, A-375, A375 cells, 72 hours treatment, CellTiter96, read-out: anti-proliferation activity A375 BRAF V600E, IC50 ranking
Procedure: as §1
as §2, with “A375” for “HCC827”, “melanoma” for “non-small cell lung carcinoma (NSCLC)”, “BRFA V600E” for “EGFR exon 19 deletion”, “BRAF” for “EGFR”, “#CRL-1619)” for “#CRL-2868)”, “DMEM containing” for “RPMI1640 medium supplemented with”
as §3

Molecule `CN(C)c1ccc(-c2cc3c(s2)Cc2c(-c4ccc5cnn(C)c5c4)n[nH]c2-3)cn1` [Compound 5, N,N-dimethyl-5-(3-(1-methyl-1H-indazol-6-yl)-1,4-dihydrothieno [2′,3′:4,5]cyclopenta[1,2-c]pyrazol-6-yl)pyridin-2-amine] has an IC50 [1] greater than 10 µM, an IC50 [2] greater than 10 µM and an IC50 (MET kinase) greater than 1 µM. It also gave an IC50 [3] greater than 10 µM.
Work on `c1cc(-c2cc3c(s2)Cc2c(-c4ccc5cn[nH]c5c4)n[nH]c2-3)ccc1CN1CCOCC1` [Compound 6, 4-(4-(3-(1H-indazol-6-yl)-1,4-dihydrothieno[2′,3′:4,5]cyclopenta[1,2-c]pyrazol-6-yl)benzyl)morpholine] yielded an IC50 [1] greater than 10 µM, an IC50 [2] greater than 10 µM and an IC50 (MET kinase) greater than 1 µM. The IC50 [3] was greater than 10 µM.
For `C[C@@H]1CN(Cc2ccc(-c3cc4c(s3)Cc3c(-c5ccc6cn[nH]c6c5)n[nH]c3-4)cc2)C[C@H](C)O1` [Compound 7, (2S,6R)-4-(4-(3-(1H-indazol-6-yl)-1,4-dihydrothieno[2′,3′:4,5]cyclopenta [1,2-c]pyrazol-6-yl)benzyl)-2,6-dimethylmorpholine], the IC50 [1] was greater than 10 µM, the IC50 [2] was greater than 10 µM and the IC50 (MET kinase) was greater than 1 µM. For the same molecule, the IC50 [3] was greater than 10 µM.
Molecule `Cn1ncc2ccc(-c3n[nH]c4c3Cc3sc(-c5ccc(CN6CCOCC6)cc5)cc3-4)cc21` [Compound 8, 4-(4-(3-(1-methyl-1H-indazol-6-yl)-1,4-dihydro-thieno[2′,3′:4,5]cyclopenta [1,2-c]pyrazol-6-yl)benzyl) morpholine] has an IC50 [1] greater than 10 µM, an IC50 [2] greater than 10 µM and an IC50 (MET kinase) greater than 1 µM. It also gave an IC50 [3] greater than 10 µM.
`C[C@@H]1CN(Cc2ccc(-c3cc4c(s3)Cc3c(-c5ccc6cnn(C)c6c5)n[nH]c3-4)cn2)C[C@H](C)O1` [Compound 9, (2S,6R)-2,6-dimethyl-4-((5-(3-(1-methyl-lH-indazol-6-yl)-1,4-dihydro-thieno[2′,3′:4,5]cyclopenta [1,2-c]pyrazol-6-yl)pyridin-2-yl)methyl) morpholine] showed an IC50 [1] greater than 10 µM, an IC50 [2] greater than 10 µM and an IC50 (MET kinase) greater than 1 µM. For the same molecule, the IC50 [3] was greater than 10 µM.
Work on `Cn1ncc2ccc(-c3n[nH]c4c3Cc3sc(-c5ccc(CN6CCOCC6)nc5)cc3-4)cc21` [Compound 10, 4-((5-(3-(1-methyl-1H-indazol-6-yl)-1,4-dihydro-thieno[2′,3′:4,5]cyclopenta [1,2-c]pyrazol-6-yl)pyridin-2-yl)methyl)morpholine] yielded an IC50 [1] greater than 10 µM, an IC50 [2] greater than 10 µM and an IC50 (MET kinase) greater than 1 µM. For the same molecule, the IC50 [3] was greater than 10 µM.
`Cc1ccc(-c2cc3c(s2)Cc2c(-c4ccc5cnn(C)c5c4)n[nH]c2-3)cn1` [Compound 11, 3-(1-methyl-1H-indazol-6-yl)-6-(6-methylpyridin-3-yl)-1,4-dihydrothieno [2′,3′:4,5]cyclopenta[1,2-c] pyrazole] gave an IC50 [1] greater than 10 µM, an IC50 [2] greater than 10 µM and an IC50 (MET kinase) greater than 1 µM. It also gave an IC50 [3] greater than 10 µM.
With `C[C@@H]1CN(Cc2cccc(-c3cc4c(s3)Cc3c(-c5ccc6cnn(C)c6c5)n[nH]c3-4)c2)C[C@H](C)O1` [Compound 12, (2S,6R)-2,6-dimethyl-4-(3-(3-(1-methyl-1H-indazol-6-yl)-1,4-dihydrothieno [2′,3′:4,5]cyclopenta[1,2-c]pyrazol-6-yl)benzyl) morpholine] the IC50 [1] was greater than 10 µM, the IC50 [2] was greater than 10 µM and the IC50 (MET kinase) was greater than 1 µM. It also gave an IC50 [3] greater than 10 µM.
In the case of `Cn1ncc2ccc(-c3n[nH]c4c3Cc3sc(-c5cccc(CN6CCOCC6)c5)cc3-4)cc21` [Compound 13, 4-(3-(3-(1-methyl-1H-indazol-6-yl)-1,4-dihydro-thieno[2′,3′:4,5]cyclopenta [1,2-c]pyrazol-6-yl)benzyl) morpholine], the IC50 [1] is reported as greater than 10 µM, the IC50 [2] is reported as greater than 10 µM and the IC50 (MET kinase) is reported as greater than 1 µM. For the same molecule, the IC50 [3] was greater than 10 µM.
Molecule `CN1CCN(Cc2cccc(-c3cc4c(s3)Cc3c(-c5ccc6cnn(C)c6c5)n[nH]c3-4)c2)CC1` [Compound 14, 3-(1-methyl-1H-indazol-6-yl)-6-(3-((4-methylpiperazin-1-yl)methyl)phenyl)-1,4-dihydrothieno [2′,3′:4,5]cyclopenta[1,2-c] pyrazole] has an IC50 [1] greater than 10 µM, an IC50 [2] greater than 10 µM and an IC50 (MET kinase) greater than 1 µM. For the same molecule, the IC50 [3] was 1 to 10 µM.
With `CN1CCN(C(=O)c2ccc(-c3cc4c(s3)Cc3c(-c5ccc6cnn(C)c6c5)n[nH]c3-4)cc2)CC1` [Compound 15, (4-(3-(1-methyl-1H-indazol-6-yl)-1,4-dihydrothieno[2′,3′:4,5]cyclopenta[1,2-c]pyrazol-6-yl)phenyl)(4-methyl-piperazin-1-yl)methanone] the IC50 [1] was greater than 10 µM, the IC50 [2] was greater than 10 µM and the IC50 (MET kinase) was greater than 1 µM. For the same molecule, the IC50 [3] was greater than 10 µM.
With `C[C@@H]1CN(Cc2ccc(-c3cc4c(s3)Cc3c(-c5ccc6cn[nH]c6c5)n[nH]c3-4)cn2)C[C@H](C)O1` [Compound 16, (2R,6S)-4-((5-(3-(1H-indazol-6-yl)-1,4-dihydro-thieno[2′,3′:4,5]cyclopenta [1,2-c]pyrazol-6-yl)pyridin-2-yl)methyl)-2,6-dimethylmorpholine] the IC50 [1] was greater than 10 µM, the IC50 [2] was greater than 10 µM and the IC50 (MET kinase) was greater than 1 µM. It also gave an IC50 [3] greater than 10 µM.
With `Cc1cc(-c2cc3c(s2)Cc2c(-c4ccc5cnn(C)c5c4)n[nH]c2-3)ccn1` [Compound 17, 3-(1-methyl-1H-indazol-6-yl)-6-(2-methylpyridin-4-yl)-1,4-dihydrothieno [2′,3′:4,5]cyclopenta[1,2-c] pyrazole] the IC50 [1] was greater than 10 µM, the IC50 [2] was greater than 10 µM and the IC50 (MET kinase) was greater than 1 µM. The IC50 [3] was greater than 10 µM.
For `c1cc(CN2CCOCC2)ncc1-c1cc2c(s1)Cc1c(-c3ccc4cn[nH]c4c3)n[nH]c1-2` [Compound 18, 4-((5-(3-(1H-indazol-6-yl)-1,4-dihydrothieno[2′,3′:4,5]cyclopenta[1,2-c]pyrazol-6-yl)pyridin-2-yl)methyl) morpholine], the IC50 [1] was greater than 10 µM, the IC50 [2] was greater than 10 µM and the IC50 (MET kinase) was greater than 1 µM. The IC50 [3] was greater than 10 µM.
Molecule `C[C@@H]1CN(C(=O)c2ccc(-c3cc4c(s3)Cc3c(-c5ccc6cnn(C)c6c5)n[nH]c3-4)cc2)C[C@H](C)O1` [Compound 19, ((2S,6R)-2,6-dimethyl-morpholino)(4-(3-(1-methyl-1H-indazol-6-yl)-1,4-dihydrothieno[2′,3′:4,5]cyclopenta[1,2-c]pyrazol-6-yl)phenyl)methanone] has an IC50 [1] greater than 10 µM, an IC50 [2] greater than 10 µM and an IC50 (MET kinase) greater than 1 µM. For the same molecule, the IC50 [3] was greater than 10 µM.
Work on `CC(c1ccc(-c2cc3c(s2)Cc2c(-c4ccc5cnn(C)c5c4)n[nH]c2-3)cc1)N1CCOCC1` (stereo not drawn) [Compound 20, 4-(1-(4-(3-(1-methyl-1H-indazol-6-yl)-1,4-dihydro-thieno[2′,3′:4,5]cyclopenta [1,2-c]pyrazol-6-yl)phenyl)ethyl)morpholine] yielded an IC50 [1] greater than 10 µM, an IC50 [2] greater than 10 µM and an IC50 (MET kinase) greater than 1 µM. For the same molecule, the IC50 [3] was greater than 10 µM.
Work on `Cn1ncc2ccc(-c3n[nH]c4c3Cc3sc(-c5ccc(C(=O)N6CCOCC6)cc5)cc3-4)cc21` [Compound 21, (4-(3-(1-methyl-1H-indazol-6-yl)-1,4-dihydro-thieno[2′,3′:4,5]cyclopenta [1,2-c]pyrazol-6-yl)phenyl) (morpholino)methanone] yielded an IC50 [1] greater than 10 µM, an IC50 [2] greater than 10 µM and an IC50 (MET kinase) greater than 1 µM. It also gave an IC50 [3] greater than 10 µM.
For `Cn1ncc2ccc(-c3n[nH]c4c3Cc3sc(-c5ccc(CN6CCOCC6)cn5)cc3-4)cc21` [Compound 95, 4-((6-(3-(1-methyl-1H-indazol-6-yl)-1,4-dihydro-thieno[2′,3′:4,5]cyclopenta [1,2-c]pyrazol-6-yl)pyridin-3-yl)methyl) morpholine], the IC50 (MET kinase) was greater than 1 µM.
